Results published in US5849526A, “Use of linalool synthase in genetic engineering of scent production” (The Regents of the University of Michigan, priority 1996, dated 1998).
Read-outs that look alike come from different tables or passages of the source.

Tests used:
[1] = molecular target: T1, C. breweri S-linalool synthase (Clarkia breweri, UniProt Q96376); assay: S-linalool synthase (LIS) enzyme assay: conversion of [1-3H]-GPP to linalool, hexane/pentane overlay, scintillation counting or radio-GC; assay type: biochemical; settings: for rate of conversion to linalool relative to the rate for GPP: LPP enantiomers tested as alternate substrates; for Rate (substrate specificity, relative to GPP = 100%): putative substrates tested at 12 μM, averages and SE of four replicate determinations; for efficiency of divalent metal ion as cofactor (in words): Mg2+ substituting for Mn2+; for effect of detergent on enzyme activity: 0.1% w/v (SDS at similar levels); for whether the divalent metal ion supports the enzymatic reaction (Neither ... nor ... support): at 1 to 10 mM, as the chloride salts; for Specific Activity: by purification step, starting material 10 g excised stigmata
T1 construct: active as monomer; not recombinant
T1 sequence (Q96376 1-870): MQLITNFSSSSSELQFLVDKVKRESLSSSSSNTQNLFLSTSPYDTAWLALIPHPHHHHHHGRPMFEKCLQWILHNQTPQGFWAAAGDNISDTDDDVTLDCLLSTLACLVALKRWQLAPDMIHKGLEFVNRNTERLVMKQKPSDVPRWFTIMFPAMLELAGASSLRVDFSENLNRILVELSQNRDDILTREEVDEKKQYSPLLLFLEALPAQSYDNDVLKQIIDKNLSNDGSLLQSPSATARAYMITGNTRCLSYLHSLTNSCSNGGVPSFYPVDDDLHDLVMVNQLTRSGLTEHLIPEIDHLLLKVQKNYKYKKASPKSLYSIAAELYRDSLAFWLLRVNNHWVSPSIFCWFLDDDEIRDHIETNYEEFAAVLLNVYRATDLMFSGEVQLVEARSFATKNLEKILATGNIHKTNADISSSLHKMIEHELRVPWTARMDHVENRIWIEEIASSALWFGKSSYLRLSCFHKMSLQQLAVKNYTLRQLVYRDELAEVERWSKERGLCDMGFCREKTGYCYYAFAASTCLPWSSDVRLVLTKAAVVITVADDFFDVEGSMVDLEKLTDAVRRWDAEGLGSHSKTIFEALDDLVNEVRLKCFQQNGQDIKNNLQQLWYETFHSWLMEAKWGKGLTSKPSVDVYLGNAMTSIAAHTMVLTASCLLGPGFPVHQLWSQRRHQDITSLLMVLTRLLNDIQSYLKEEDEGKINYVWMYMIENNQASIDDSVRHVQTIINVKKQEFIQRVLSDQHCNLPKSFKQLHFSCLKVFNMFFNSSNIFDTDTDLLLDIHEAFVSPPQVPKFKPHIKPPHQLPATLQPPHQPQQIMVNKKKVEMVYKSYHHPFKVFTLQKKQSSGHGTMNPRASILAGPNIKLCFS
Experimental: The crude extract (100 ml) was loaded onto a DEAE-cellulose (0.7 cm diam.×6 cm) column (Whatman, DE52) that was pre-equilibrated with a solution containing 50 mM BisTris, pH 6.9, 10% glycerol and 10 mM DTT (buffer A) at a flow rate of about 1 ml/min. Following elution of the unadsorbed material, the column was washed with 50 ml of buffer A followed by an additional 20 ml of buffer A containing 150 mM KCl. LIS activity was then eluted with 20 ml of buffer A containing 250 mM KCl. Fractions with the highest LIS activity (about 60% yield, 10 ml), were either pooled and used immediately, or frozen at -20° C. for up to 1 month with less than 20% loss of activity. The DEAE-cellulose purified fractions were diluted 2-fold with ice-cold buffer A, and loaded on a 1 cm diam.×10cm hydroxyapatite column (Bio-Gel HT, Bio-Rad, Richmond, Calif.) installed in a Pharmacia FPLC apparatus, and pre-equilibrated with 100 ml of buffer A, at a flow rate of 0.5 ml/min. After the enzyme was loaded, the column was washed with 20 ml buffer A and then eluted using a linear gradient (100 ml) from 0 to 200 mM Na-phosphate in buffer A. The fractions containing LIS activity, eluting at about 100 mM Na-phosphate, were pooled (10 to 16 ml) and loaded on a pre-packed Pharmacia Mono-Q HR 5/5 FPLC column equilibrated with buffer A. After a 20-ml wash with buffer A, a steep linear gradient from 0 to 100 mM KCl in buffer A (10 ml) was applied, followed by a more gradual linear gradient from 100 to 400 mM KCl in buffer A (100 ml, 0.25 ml/min). The enzyme consistently eluted at about 220 mM KCl. After dialysis to assay conditions, the enzyme at this level of purity was used for characterization.
After incubation, the assay mixture was briefly mixed again to extract non-polar products into the organic layer. An 800-μl aliquot of the hexane phase was placed into a scintillation vial containing 10 ml of a cocktail of 0.4% (w/v) Omnifluor (Du Pont, Boston Mass.) dissolved in 30% (v/v) ethanol in toluene and counted in a Packard TriCarb 460 CD scintillation spectrometer (efficiency for ^3 H=36%) to determine the total monoterpene synthase activity. To examine in detail the products formed, radio-GC was performed as described (Croteau et al., 1990). For this purpose, the 2 ml pentane extract containing the enzymatically formed ^3 H-labeled products was removed, dried by passage through MgSO4, and internal standards were added (10 μg each of linalool and geraniol; nerol was UD also included in initial experiments). The mixture was then concentrated to ~10 μl under a gentle stream of nitrogen, and an aliquot (2-3 μl) was injected into a Gow-Mac 550P radio gas chromatograph fitted with a 0.125 in ×12 ft stainless steel column loaded with AT-1000 (Gas Chrom Q, Alltech), attached to a Packard 894 gas proportional counter. The initial column temperature was 170° C. and, following a 5 min hold, was programmed at 5° C./min to 220° C., using He at a flow rate of 50 ml/min. Control incubations included the omission of enzyme extract, the use of boiled enzyme extract, the omission of substrate, and the omission of divalent cations. All of these controls produced negligible radioactivity in the hexane phase of the enzyme assay mixtures.
The enantiomeric composition of linalool samples was determined on a fused silica capillary column (0.25 mm internal diam.×30 m) coated with a 0.25 μm film of β-cyclodextrin (J & W Scientific, Cyclodex B), operated at an initial temperature of 75° C. for 15 min followed by a rise of 5° C./min to 200° C. H2 at a head pressure of 13.5 psi was used as carrier gas (Alonso et al., 1992).

[2] = molecular target: T2, LIS (linalool synthase) in crude extracts (Clarkia breweri, UniProt Q96376); assay: LIS activity assay in crude extracts of open C. breweri flowers; assay type: biochemical
T2 sequence (Q96376 1-870): T1 sequence (Q96376 1-870)
Experimental: LIS activity was assayed by combining crude extract with ^3 H-GPP (or other substrates) in a buffer containing co-factors. LIS activity was monitored by counting the radioactive linalool extracted from the assay buffer with hexane (GPP is not soluble in hexane) in a scintillation counter. Radio-GC analyses (Croteau et al., 1990) were also undertaken because GPP could be enzymatically hydrolyzed by non-specific phosphatases to produce geraniol, or the tissue might contain other monoterpene synthases, and geraniol or the other monoterpenes that may be produced are also soluble in the organic phase. […] Furthermore, with a special stereo-GC column it was also shown that the product of the reaction is exclusively S-linalool.
A crude protein extract was prepared by macerating flower parts in a microcentrifuge tube in the presence of ice-cold buffer (10 volumes:fresh weight) containing 50 mM BisTris-HCl pH 6.9, 10 mM DTT, 5 mM Na2 S2 O5, 1% (w/v) PVP-40 and 10% (v/v) glycerol. The slurry was centrifuged for 10 min and the supernatant transferred to a new tube. For each time point, extracts of 3 to 5 flowers from 3 different plants were combined. […]
After 1 h, the tube was vortexed again and the amount of the radioactive linalool product, which partitioned into the organic phase, was determined by an LSC of an aliquot. […]

[3] = divalent metal ion required for activity, read-out: Km of divalent metal ion cofactor

[3H]C=C[C@@](C)(CCC=C(C)C)OP(=O)(O)OP(=O)(O)O [3R-[1-^3 H]Linalyl pyrophosphate, reference compound]
rate of conversion to linalool relative to the rate for GPP [1]: essentially not converted to linalool | Rate (substrate specificity, relative to GPP = 100%) [1]: 0.6 ± 0.6%

[Mn+2] [Mn^2+]
efficiency of divalent metal ion as cofactor (in words) [1]: most efficient | Km [1, 3]: 45 µM

Triton-X-100 [reference compound]
effect of detergent on enzyme activity [1]: no effect on enzyme activity

[Zn+2] [Zn^2+]
whether the divalent metal ion supports the enzymatic reaction (Neither ... nor ... support) [1]: Neither

CCCCCCCCCCCCOS(=O)(=O)[O-].[Na+] [sodium dodecyl sulfate, reference compound]
effect of detergent on enzyme activity [1]: complete loss of activity

[Ca+2] [Ca^2+]
whether the divalent metal ion supports the enzymatic reaction (Neither ... nor ... support) [1]: Neither

[Cu+2] [Cu^2+]
whether the divalent metal ion supports the enzymatic reaction (Neither ... nor ... support) [1]: Neither

CC(C)=CCC/C(C)=C/COP(=O)(O)OP(=O)(O)O [GPP, Geranyl Pyrophosphate, reference compound]
cofactor / substrate requirement of LIS activity [2]: the only substrate | Km ([1]; calculated from a Lineweaver-Burk plot, purified enzyme, read-out: Km value for GPP): 0.9 µM | Rate (substrate specificity, relative to GPP = 100%) [1]: 100 ± 9.6% | Rate with GPP corresponding to 100% ([1]; substrate at 12 μM, Table 6 footnote b): 22. 2 pkat/mg protein

[Co+2] [Co^2+]
whether the divalent metal ion supports the enzymatic reaction (Neither ... nor ... support) [1]: Neither

[3H]C=C[C@](C)(CCC=C(C)C)OP(=O)(O)OP(=O)(O)O [3S-[1-^3 H]Linalyl pyrophosphate, reference compound]
rate of conversion to linalool relative to the rate for GPP [1]: 15% | Rate (substrate specificity, relative to GPP = 100%) [1]: 15.1 ± 6.0%

Hydroxyapatite
Specific Activity [1]: 44.1 pkat mg^-1 | specific activity of preparation loaded on Superdex 75 ([1]; hydroxyapatite-purified enzyme): 44.1 pkat/mg protein

[Mg+2] [Mg^2+]
efficiency of divalent metal ion as cofactor (in words) [1]: half the rate | Km [1, 3]: 330 µM

B1: LIS: S-linalool synthase purified from stigmata of C. breweri (Mono Q purified enzyme used for characterization), SEQ ID NO:2 (protein)
chain: MQLITNFSSSSSELQFLVDKVKRESLSSSSSNTQNLFLSTSPYDTAWLALIPHPHHHHHHGRPMFEKCLQWILHNQTPQGFWAAAGDNISDTDDDVTLDCLLSTLACLVALKRWQLAPDMIHKGLEFVNRNTERLVMKQKPSDVPRWFTIMFPAMLELAGASSLRVDFSENLNRILVELSQNRDDILTREEVDEKKQYSPLLLFLEALPAQSYDNDVLKQIIDKNLSNDGSLLQSPSATARAYMITGNTRCLSYLHSLTNSCSNGGVPSFYPVDDDLHDLVMVNQLTRSGLTEHLIPEIDHLLLKVQKNYKYKKHHQNHCIALLRNYTGFISIFGCFESIITGYHHQFFCWFLDDDEIRDHIETNYEEFAAVLLNVYRATDLMFSGEVQLVEARSFATKNLEKILATGNIHKTNADISSSLHKMIEHELRVPWTARMDHVENRIWIEEIASSALWFGKSSILRLSCFHKMSLQQLAVKNYTLRQLVYRDELAEVERWSKERGLCDMGFCREKTGYCYYAFAASTCLPWSSDVRLVLTKAAVVITVADDFFDVEGSMVDLEKLTDAVRRWDAEGLGSHSKTIFEALDDLVNEVRLKCFQQNGQDIKNNLQQLWYETFHSWLMEAKWGKGLTSKPSVDVYLGNAMTSIAAHTMVLTASCLLGPGFPVHQLWSQRRHQDITSLLMVLTRLLNDIQSYLKEEDEGKINYVWMYMIENNQASIDDSVRHVQTIINVKKQEFIQRVLSDQHCNLPKSFKQLHFSCLKVFNMFFNSSNIFDTDTDLLLDIHEAFVSPPQVPKFKPHIKPPHQLPATLQPPHQPQQIMVNKKKVEMVYKSYHHPFKVFTLQKKQSSGHGTMNPRASILAGPNIKLCFS
pH optimum ([1]; broad optimum): 7.4 | Specific Activity [1]: 395 pkat mg^-1 | stability to vigorous vortexing with non-polar organic solvents ([1]; hexane and pentane): very stable | loss of activity in the absence of DTT ([1]; over 2 h at 4° C.): > 95% | rate at pH 6.4 and 8.4 relative to the optimal ([1]; pH 6.4 and 8.4): ~ 80% | turnover number ([1]; under saturating conditions): 31.6 s⁻¹
